How the values were obtained:
human TRPV4 [1] = target: T1, human TRPV4 (Homo sapiens (Human), UniProt Q9HBA0); assay: Test Example 3: measurement of TRPV4 inhibitory activity (Fluo-3, FDSS 3000, 4α-PDD); assay type: cell-based; conditions: hTRPV4/CHO cells, calculated from IC50 and 4α-PDD EC50
Procedure: (§1) For each compound, TRPV4 inhibitory activity was measured using cells.
(§2) (1) The TRPV4 inhibitory activity was measured using CHO-K1 cells stably expressing human TRPV4 (hTRPV4/CHO cells).
(2) Frozen cells were thawed and subcultured with the medium (MEM-α, 10% FBS, […], 50 unit/mL penicillin, 50 μg/mL streptomycin, 1 mg/mL G418).
(3) The 96-well plates which hTRPV4/CHO cells were seeded at densities of 2×10^4 cells/well in the culture medium and cultured in a CO2 incubator in the presence of 5% CO2 at 37° C. for 24 h was used as assay plates.
(4) The assay plate was washed with assay buffer (Hanks, […], […], pH7.4).
(5) Fluo-3, fluorescent dye for Ca influx assay was added to each well, then the assay plate was incubated in a CO2 incubator in the presence of 5% CO2 at 37° C. for one hour (final conc.; 5 μmmol/L Fluo-3).
(6) The assay plate was washed with the assay buffer, and the buffer was remained at 30 μL/well. Then the assay plate was incubated for 10 min at 37° C.
(7) Diluted compound solution was dispensed to each well in the compound plate, and mixed with built-in Pipette and Mixer of the fluorescence analysis system FDSS 3000 (Hamamatsu Photonics).
(8) 50 μL of 4α-PDD solution (concluding 0.1% Pluronic F-127) was applied to each well of assay plate and mixed.
(9) The fluorescent intensity was measured by FDSS 3000 for 8 min from the point of time addition the compound solution, at Ex 480 nm, Em 540 nm wavelength.
TRPV4 inhibitory activity (Ki value) of a compound was evaluated according to the following procedure.
(10) In the presence of the compound, the difference between maximal and minimal of fluorescent intensity value for 8 min from just before addition of 4α-PDD solution was calculated, and it was referred as Max-Min value. Max-Min value of the Ruthenium Red at 10 μM was defined as 100% inhibitory activity, Max-Min value in the absence of the compound was defined as 0% inhibitory activity. The TRPV4 inhibitory activity of the compound was calculated by the following formula. (1−(Max-Min value of the compound−100% inhibitory activity)/(0% inhibitory activity−100% inhibitory activity))×100 (11) By the following formula, inhibitory activity was calculated at 10 points with three fold serial dilution, in the final concentration of the compound from 10 μmmol/L to 0.5 nmol/L. The IC50 value was calculated by dose-response curve. 100−[(fluorescent intensity in the presence of the compound−fluorescent intensity of back ground)/(total fluorescent intensity−fluorescent intensity of back ground)]×100 (12) In the presence of the compound, activity of 4α-PDD was measured at 9 points with three fold serial dilution from 20 μmol/L. Activity of 4α-PDD was calculated by the following formula. (Max-Min value of the each 4α-PDD concentration−0% activity)/(100% activity−0% activity))×100 (13) Effective activity was calculated in 4α-PDD the above. The EC50 value was calculated by dose-response curve. (14) The Ki value of a compound was calculated by the following formula. Ki (nmol/L)=IC50 value (nmol/L)/([A]/EC50 value (nmol/L)) [A]; Concentration of agonist (nmol/L)

human TRPV4 [2] = target: T1, human TRPV4; assay: Test Example 1: measurement of TRPV4 inhibitory activity (Fluo 4-AM, FLIPR TETRA, 4α-PDD 1 μmol/L); assay type: cell-based; conditions: hTRPV4/CHO cells; for IC50: 4α-PDD 1 μmol/L; for Ki: calculated from IC50 and 4α-PDD EC50
Procedure: as §1, §2
(2) In the day before the experimental day, frozen cell were thawed and washed with the culture medium (MEM-α, 10% FBS, 2 mmol/L GlutaMax, 50 unit Penicillin, 50 μg/mL Streptomycin). Then cells were suspended in the culture medium.
(3) The 384-well plates which hTRPV4/CHO cells were seeded at densities of 4000 cells/well in the culture medium and cultured in a CO2 incubator in the presence of 5% CO2 at 37° C. for overnight was used as assay plates.
(4) The assay plate was washed with assay buffer (Hanks, 20 mmol/L HEPES, 2.5 mmol/L probenecid, pH7.4), and the buffer were remained at 20 μL/well.
(5) 10 μl of dye loading buffer (9 μmol/L Fluo 4-AM, 0.09% Pluronic F-127/assay buffer) was added to each well, then the assay plate was incubated in a CO2 incubator in the presence of 5% CO2 at 37° C. for one hour. (final 3 μmol/L Fluo4-AM).
(6) The assay plate was washed with the assay buffer, and the buffers were remained at 20 μL/well. Then the assay plate was incubated for 10 min at room temperature.
(7) Diluted compound solution was dispensed to each well in the compound plate, and mixed with built-in Pipette and Mixer of the Fluorescence analysis system FLIPR TETRA (Molecular devices).
(8) After incubation for 5 min, 20 μL of 4α-PDD solution were applied to each well of assay plate and mixed with the FLIPR TETRA. (final 1 μmol/L 4α-PDD)
(9) The fluorescent intensity was measured with FLIPR TETRA system for 10 min from the point of time addition the compound solution, at Ex 470-495 nm, Em 515-575 nm wavelength.
TRPV4 inhibitory activity (IC50 value and Ki value) of a compound was evaluated according to the following procedure.
(10) In the presence of the compound, the difference between maximal and minimal of fluorescent intensity value for 5 min from just before addition of 4α-PDD solution was calculated, and it was referred as Max-Min value. Max-Min value of the Ruthenium Red at 20 μM was defined as 100% inhibitory activity, Max-Min value in the absence of the compound was defined as 0% inhibitory activity. The TRPV4 inhibitory activity of the compound was calculated by the following formula. (1−(Max-Min value of the compound−100% inhibitory activity)/(0% inhibitory activity−100% inhibitory activity))×100 (11) Inhibitory activity was calculated at 10 points with three fold serial dilution, in the final concentration of the compound from 10 μmmol/L to 0.5 nmol/L, the IC50 value was calculated by logistic approximation method. (12) In the absence of the compound, the fluorescent intensity was measured as the same method with 10, 1, 0.5, 0.2, and 0 μmol/L as final concentration of 4α-PDD. The difference of minimal and maximal fluorescent intensity value for 5 min from just before addition of 4α-PDD solution was calculated, and it was referred as Max-Min value. Max-Min value of the 4α-PDD at 10 μmol/L was defined as 100% activity, Max-Min value in the absence of 4α-PDD was defined as 0% activity. The TRPV4 activity of each concentration of 4α-PDD was calculated by the following formula. (Max-Min value of the each 4α-PDD concentration−0% activity)/(100% activity−0% activity))×100 (13) Effective activity was calculated in 5 concentrations of 4α-PDD the above. The EC50 value was calculated by logistic approximation method. The Ki value of a compound was calculated by the following formula. Ki (nmol/L)=IC50 value (nmol/L)/(1+[…] (test 4α-PDD concentration (nmol/L)/EC50 value (nmol/L))

T1 sequence (Q9HBA0 whole entry): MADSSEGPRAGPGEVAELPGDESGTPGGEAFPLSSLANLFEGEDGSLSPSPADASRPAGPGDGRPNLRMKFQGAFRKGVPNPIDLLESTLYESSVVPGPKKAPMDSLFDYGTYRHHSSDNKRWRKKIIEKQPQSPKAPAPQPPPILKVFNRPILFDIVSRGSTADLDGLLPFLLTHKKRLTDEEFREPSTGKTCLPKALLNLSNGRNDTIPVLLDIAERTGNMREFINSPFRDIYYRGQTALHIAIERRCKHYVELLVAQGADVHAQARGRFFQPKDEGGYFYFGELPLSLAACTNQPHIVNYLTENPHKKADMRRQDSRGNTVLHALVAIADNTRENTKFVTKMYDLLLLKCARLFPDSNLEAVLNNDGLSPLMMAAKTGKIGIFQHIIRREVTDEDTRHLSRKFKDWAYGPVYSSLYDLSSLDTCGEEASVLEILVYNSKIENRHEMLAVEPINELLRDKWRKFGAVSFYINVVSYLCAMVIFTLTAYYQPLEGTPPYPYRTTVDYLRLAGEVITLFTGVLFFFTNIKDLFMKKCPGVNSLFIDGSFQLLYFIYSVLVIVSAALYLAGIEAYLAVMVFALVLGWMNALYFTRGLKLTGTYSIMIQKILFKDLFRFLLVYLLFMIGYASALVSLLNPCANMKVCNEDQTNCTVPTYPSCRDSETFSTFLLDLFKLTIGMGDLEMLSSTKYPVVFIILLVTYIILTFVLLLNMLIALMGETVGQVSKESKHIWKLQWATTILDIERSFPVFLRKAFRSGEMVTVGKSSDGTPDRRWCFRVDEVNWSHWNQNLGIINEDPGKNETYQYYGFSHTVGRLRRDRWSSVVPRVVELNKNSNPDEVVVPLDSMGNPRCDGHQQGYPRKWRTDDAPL

Row | Compound | Ki (human TRPV4 [1]) | IC50 (human TRPV4 [2]) | Ki (human TRPV4 [2])
1 | Cc1c(C(=O)OCc2ccccc2)cc(C(C)(C)C)n1CCCN1CCOCC1 [Compound I-001] | 3.96 µM |  | 
2 | Cc1c(C(=O)Nc2cccc(C(F)(F)F)c2)cc(-c2ccccc2)n1CCCNc1ccccc1 [Compound I-011] | 1.7 µM |  | 
3 | Cc1c(C(=O)Nc2cccc(C(F)(F)F)c2)cc(-c2ccccc2)n1CCCN(C)c1ccccc1 [Compound I-012] | 1.14 µM |  | 
4 | Cc1c(C(=O)Nc2cccc(Cl)c2)cc(-c2ccccc2)n1CCCN1CCOCC1 [Compound I-013] | 0.453 µM |  | 
5 | Cc1c(C(=O)Nc2nc3ccccc3s2)cc(-c2ccccc2)n1CCCN1CCOCC1 [Compound I-020] | 0.992 µM |  | 
6 | Cc1c(C(=O)Nc2cccc(C(C)C)c2)cc(-c2ccccc2)n1CCCN1CCOCC1 [Compound I-029] | 0.519 µM |  | 
7 | Cc1c(C(=O)Nc2cccc(C(F)(F)F)c2)cc(-c2ccccc2)n1CCCN(C)C(=O)OC(C)(C)C [Compound I-030] | 0.701 µM |  | 
8 | Cc1c(C(=O)Nc2cccc(C(F)(F)F)c2)cc(-c2ccccc2)n1CCCN(C)CCOCc1ccccc1 [Compound I-034] | 2.62 µM |  | 
9 | Cc1c(C(=O)Nc2cccc(C(F)(F)F)c2)cc(-c2ccccc2)n1CCCN(C)CC1CCOC1 (stereo not shown) [Compound I-036] | 1 µM |  | 
10 | CCOC(=O)C1CC1CN(C)CCCn1c(-c2ccccc2)cc(C(=O)Nc2cccc(C(F)(F)F)c2)c1C (stereo not shown) [Compound I-037] | 1.8 µM |  | 
11 | Cc1c(C(=O)Nc2cccc(C(F)(F)F)c2)cc(-c2ccccc2)n1CCCN(C)CC1CCOCC1 [Compound I-040] | 1.14 µM |  | 
12 | COC(=O)CCCN(C)CCCn1c(-c2ccccc2)cc(C(=O)Nc2cccc(C(F)(F)F)c2)c1C [Compound I-041] | 0.988 µM |  | 
13 | Cc1c(C(=O)Nc2cccc(C(F)(F)F)c2)cc(-c2ccccc2)n1CCCN(C)C(=O)C1CCCCC1 [Compound I-042] | 1.12 µM |  | 
14 | Cc1c(C(=O)Nc2cccc(C(F)(F)F)c2)cc(-c2ccccc2)n1CCCN(C)C(=O)c1ccco1 [Compound I-043] | 1.38 µM |  | 
15 | Cc1c(C(=O)Nc2cccc(C(F)(F)F)c2)cc(-c2ccccc2)n1CCCN(C)C(=O)c1cccs1 [Compound I-044] | 0.844 µM |  | 
16 | COCC(=O)N(C)CCCn1c(-c2ccccc2)cc(C(=O)Nc2cccc(C(F)(F)F)c2)c1C [Compound I-045] | 1.72 µM |  | 
17 | Cc1c(C(=O)Nc2cccc(C(F)(F)F)c2)cc(-c2ccccc2)n1CCCN(C)C(=O)Cc1cccs1 [Compound I-046] | 1.68 µM |  | 
18 | Cc1c(C(=O)Nc2cccc(C(F)(F)F)c2)cc(-c2ccccc2)n1CCCN(C)C(=O)c1ccncc1 [Compound I-047] | 0.32 µM |  | 
19 | Cc1c(C(=O)Nc2cccc(C(F)(F)F)c2)cc(-c2ccccc2)n1CCCN(C)C(=O)c1ccc2c(c1)OCO2 [Compound I-048] | 1.31 µM |  | 

Row | Compound | Ki (human TRPV4 [1]) | IC50 (human TRPV4 [2]) | Ki (human TRPV4 [2])
20 | COCCOCC(=O)N(C)CCCn1c(-c2ccccc2)cc(C(=O)Nc2cccc(C(F)(F)F)c2)c1C [Compound I-050] | 1.14 µM |  | 
21 | Cc1c(C(=O)Nc2cccc(C(F)(F)F)c2)cc(-c2ccccc2)n1CCCN(C)C(=O)C(C)C [Compound I-051] | 0.59 µM |  | 
22 | Cc1c(C(=O)Nc2cccc(C(F)(F)F)c2)cc(-c2ccccc2)n1CCCN(C)C(=O)C1CC1 [Compound I-052] | 0.707 µM |  | 
23 | Cc1c(C(=O)Nc2cccc(C(F)(F)F)c2)cc(-c2ccccc2)n1CCCN(C)C(=O)c1cccnc1 [Compound I-053] | 0.978 µM |  | 
24 | Cc1c(C(=O)Nc2cccc(C(F)(F)F)c2)cc(-c2ccccc2)n1CCCN(C)C(=O)c1ccccn1 [Compound I-054] | 1.17 µM |  | 
25 | Cc1c(C(=O)Nc2cccc(C(F)(F)F)c2)cc(C(C)(C)C)n1[C@H]1CC[C@@H](NS(C)(=O)=O)CC1 [Compound I-115] |  | 6 µM | 1.6 µM
26 | Cc1c(C(=O)Nc2cccc(C(F)(F)F)c2)cc(C(C)(C)C)n1[C@H]1CC[C@@H](N)CC1 [Compound I-116] |  | 5.3 µM | 1.5 µM
27 | CNCCCn1c(C(C)(C)C)cc(S(=O)(=O)Nc2cccc(C(F)(F)F)c2)c1C [Compound I-117] |  | 9.2 µM | 2.5 µM
28 | Cc1c(S(=O)(=O)Nc2cccc(C(F)(F)F)c2)cc(C(C)(C)C)n1CCCN1CCOCC1 [Compound I-118] |  | 9.2 µM | 2.5 µM
29 | Cc1c(C(=O)Nc2cccc(C(F)(F)F)c2)cc(C(C)(C)C)n1[C@H]1CC[C@@H](N(C)S(C)(=O)=O)CC1 [Compound I-120] |  | 3.5 µM | 1.1 µM
30 | CNCC(F)(F)Cn1c(C(C)(C)C)cc(C(=O)Nc2cccc(C(F)(F)F)c2)c1C [Compound I-121] |  | 1.4 µM | 0.45 µM
31 | Cc1c(C(=O)Nc2cccc(C(F)(F)F)c2)cc(C(C)(C)C)n1CC(F)(F)CN1CCOCC1 [Compound I-122] |  | 0.78 µM | 0.24 µM
32 | Cc1c(C(=O)Nc2cccc(C(F)(F)F)c2)cc(C(C)(C)C)n1CC(C)(C)CN1CCNCC1 [Compound I-123] |  | 1.4 µM | 0.45 µM
33 | Cc1c(C(=O)Nc2cccc(C(F)(F)F)c2)cc(C(C)(C)C)n1CCC(C)N1CCNCC1 (stereo not shown) [Compound I-124] |  | 0.26 µM | 
34 | Cc1c(C(=O)Nc2cccc(C(F)(F)F)c2)cc(C(C)(C)C)n1CC(F)(F)CN1CCNCC1 [Compound I-125] |  | 1.5 µM | 
35 | Cc1c(-c2nc3ccccc3o2)cc(C(C)(C)C)n1CCCN1CCNCC1 [Compound I-126] |  | 4.5 µM | 
36 | Cc1c(-c2nc3ccccc3[nH]2)cc(C(C)(C)C)n1CCCN1CCOCC1 [Compound I-127] |  | 3.1 µM | 
37 | Cc1c(-c2nc3ccccc3[nH]2)cc(C(C)(C)C)n1CCCN1CCNCC1 [Compound I-128] |  | 5.4 µM | 
38 | CNCCCn1c(C(C)(C)C)cc(-c2nc3ccccc3[nH]2)c1C [Compound I-129] |  | 6.4 µM | 

Reference: patent US9340500B2, “Aromatic heterocyclic derivative having TRPV4-inhibiting activity” (SHIONOGI & CO., LTD., priority 2011, dated 2016)
